These results are taken from patent US4214095A, “Chlorobenzyl phenoxy alkoxylates” (Siegfried Aktiengesellschaft, priority 1979, dated 1980).

For series [1], the system named is mice. Description: Acute oral toxicity (LD50) in mice. The note with it: conclusion from Table I. Type of series: in vivo. The procedure: (§1) The compounds of Examples I to VIII were tested to evaluate their pharmacological effectiveness. Specifically, their toxicity (LD50), cholesterol-lowering effectiveness (E1 D25) and their liver weight increasing activity (E2 D25) were tested on animals according to standard methods.
(§2) At least three different doses were tested for each LD50 value given and 10 animals were used for testing of each dose; five test animals were kept in one standard "Macrolon" cage. The test substance was administered as a suspension in aqueous (3-5% by weight) Gum Arabic via a probe into the stomach in quantities of 10 ml of the suspension per kilogram body weight. As is conventional, LD50 is that dose of the test substance in mg/kg body weight which causes death of 50% of the test animals within the observation period. Higher LD50 values indicate lower toxicity and vice versa.

Series [2] in a line: Acute oral toxicity (LD50) in mice. In kind it is in vivo. The note with it: mouse, in vivo. The procedure: as §1, §2
Series [3] has as its system cholesterol level in the blood serum. In words: Cholesterol-lowering effectiveness (E1 D25) in rats. Type of series: in vivo, male Whistar rats. The note with it: for ED25: Rattus norvegicus, male Whistar rats, oral, daily, two weeks (5 + 5 days), vs control, read-out: E1 D25 (dose causing 25% reduction of average serum cholesterol level); for cholesterol lowering effectiveness (in words): conclusion from Table I. The protocol:
as §1
(B) The effective dose E1 D25 is the amount of test substance in milligram per kilogram body weight of the test animals (male Whistar rats, 100-200 g body weight, eight to ten animals per dosis) that causes a 25% by weight reduction of the average cholesterol level in the blood serum of test animals that had received the test substance, compared with the cholesterol level in the blood serum of the control group. The test substances were administered orally via a probe in the manner set forth above for the LD50 toxicity, i.e. as suspension in aqueous Gum Arabic. Each test animal was administered daily with 10 ml of the suspension per kilogram body weight. The animals of the control group were administered daily with each 10 ml of the aqueous Gum Arabic per kilogram of body weight without the test substance. The daily dose was administered for 5 subsequent days, resumed after a two-day week-end interval and continued for 5 additional days. After a total test period of two weeks, both the test and the control animals were sacrificed and the blood serum was recovered from the bodies for analysis.
Cholesterol analysis of the serum recovered was carried out according to the standard method of M. Richterich (cf. Monography by M. Richterich, "Klinische Chemie," Verlag Karger, Basel/New York, 1965, p. 232) and the results were evaluated by means of a cholesterol level/dose diagram. The E1 D25 values were taken from the diagram thus obtained. Lower E1 D25 values indicate higher activity, and vice versa.

Series [4] deals with liver weight/body weight ratio (relative liver weight). The arrangement: species or system male Whistar rats. The note with it: rat, in vivo. The procedure:
as §1
(C) The effective dose E2 D25 is the amount of test substance in milligram per kilogram body weight of the test animals (male Whistar rats, 100-200 g body weight, eight to ten animals per dose) that causes a 25% increase of the liver weight/body weight ratio (relative liver weight) of test animals that had received that test substance, compared with the liver weight/body weight ratio of the control group. Administration was effected substantially in the manner described above for E1 D25. The relative liver weight was determined from the bodies of the sacrificed animals and the control animals. The actual increase of the relative liver weight was evaluated graphically and the E2 D25 was obtained by interpolation from the graph.

For series [5], the system named is mice. The note with it: background section; cited from earlier work.
The mark [6] stands for this setting: mice, single oral dose, 7 days observation or longer, read-out: LD50.

Each structure is given as a SMILES string. Structures can show the parent of a compound that is named as a salt. Where two headings read alike, the source gives them in different places.

One may read the LD50 as the dose at which mortality reaches 50%. As to `CCOC(=O)C(C)(CC)Oc1ccccc1Cc1ccc(Cl)cc1` (racemic) [Example I, ethyl D,L-2-methyl-2-[o-(p'-chlorobenzyl)-phenoxy]butyrate], the “toxicity (in words)” value in series [1] is on record as “low toxicity”. For the same compound, in series [2] (po, read-out: LD50), the LD50 at 168 h is > 10000 mg/kg. Further, in series [3], the ED25 was ~10 mg/kg and the “cholesterol lowering effectiveness (in words)” value is recorded as “high cholesterol lowering effectiveness”. Also, in series [4], the “liver enlargement activities (in words)” value is recorded as “low or very low liver enlargement activities”.
Turning to `CCCC(C)(Oc1ccccc1Cc1ccc(Cl)cc1)C(=O)OCC` (racemic) [Example II, ethyl D,L-2-methyl-2-[o-(p'-chlorobenzyl)-phenoxy]-valerate], the LD50 at 168 h in series [2] (po, read-out: LD50) was > 10000 mg/kg. Moreover, the ED25 in series [3] is ~40 mg/kg.
Turning to `CCC(C)(Oc1ccccc1Cc1ccc(Cl)cc1)C(=O)OCc1cccnc1` (racemic) [Example III, D,L-2-methyl-2-[o-(p'-chlorobenzyl)-phenoxy]-butyric acid-(3-oxymethyl-pyridine)-ester hydrochloride], the LD50 at 168 h in series [2] (po, read-out: LD50) was > 3000 mg/kg. Besides, the ED25 in series [3] was ~10 mg/kg.
On to `CCOC(=O)C(C)(C)Oc1ccccc1Cc1ccc(Cl)cc1` [Example IV, ethyl 2-methyl-2-[o-(p'-chlorobenzyl)-phenoxy]propionate], for which, in series [2] (po, read-out: LD50), the LD50 at 168 h was > 10000 mg/kg. The ED25 in series [3] was ~90 mg/kg.
Take `CC(C)(Oc1ccccc1Cc1ccc(Cl)cc1)C(=O)OCc1cccnc1` [Example V, 2-methyl-2-[o-(p'-chlorobenzyl)-phenoxy]-propionic acid-(3-oxymethyl-pyridine)-ester hydrochloride]: the LD50 at 168 h in series [2] (setting [6]) was > 3000 mg/kg.
Take `CCOC(=O)C(C)(CC)Oc1cccc(Cc2ccc(Cl)cc2)c1` (stereo not drawn) [Example VIII]: in series [3], the ED25 was 40 mg/kg.
As for `CCOC(=O)C(C)Oc1ccccc1Cc1ccc(Cl)cc1` (stereo not drawn) [Example VII], the LD50 at 168 h in series [2] (po, read-out: LD50) is > 3000 mg/kg. Besides, in series [3], the ED25 is 100 mg/kg and the “cholesterol lowering effectiveness (in words)” value is “reduced cholesterol lowering effect”.
Regarding `CCOC(=O)COc1ccccc1Cc1ccc(Cl)cc1` [Example VI], the LD50 at 168 h in series [2] (po, read-out: LD50) turned out to be 3000 mg/kg. Further, in series [3], the ED25 turned out to be 300 mg/kg and the “cholesterol lowering effectiveness (in words)” value is listed as “reduced cholesterol lowering effect”.
As to `CCOC(=O)C(C)(CC)Oc1ccc(Cc2ccc(Cl)cc2)cc1` (stereo not drawn) [Substance A, ethyl ester of 2methyl-2-4(4chlorobenzyl)-phenoxy-butyric acid, reference compound], the LD50 at 168 h in series [2] (po) was found to be 8000 mg/kg. For the same compound, in series [3], the ED25 was found to be 12.1 mg/kg.
As for `CCOC(=O)C(C)(C)Oc1ccc(Cl)cc1` [Substance B, Ethyl p-chlorophenoxyisobutyrate, reference compound], the LD50 at 168 h in series [2] (setting [6]) was 2350 mg/kg. The ED25 in series [3] amounted to 151 mg/kg. For the same compound, the “toxicity (in words)” value in series [5] is listed as “relatively high toxicity”.
